Structures can show the parent of a compound that is named as a salt.
What was measured:
A549 = assay: Cytotoxicity against human A549 cells assessed as reduction in cell viability by MTT assay; type: functional, cell-based
A-427 [1] = assay: Cytotoxicity against human A-427 cells assessed as reduction in cell viability by MTT assay; type: functional, cell-based
HCT-116 = assay: Cytotoxicity against human HCT-116 cells assessed as reduction in cell viability by MTT assay; type: functional, cell-based
HT-29 = assay: Cytotoxicity against human HT-29 cells assessed as reduction in cell viability by MTT assay; type: functional, cell-based
MCF7 [2] = assay: Cytotoxicity against human MCF7 cells assessed as reduction in cell viability by MTT assay; type: functional, cell-based
HeLa = assay: Cytotoxicity against human HeLa cells assessed as reduction in cell viability by MTT assay; type: functional, cell-based
HepG2 = assay: Cytotoxicity against human HepG2 cells assessed as reduction in cell viability by MTT assay; type: functional, cell-based
L02 = assay: Cytotoxicity against human L02 cells assessed as reduction in cell viability by MTT assay; type: cell-based
A-427 [3] = assay: Induction of apoptosis in human A-427 cells assessed as late apoptotic cells at 10 uM measured after 24 hrs by Annexin V-FITC/propidium iodide staining based flow cytometric analysis (reference value: 2.06%); type: functional
A-427 [4] = assay: Induction of apoptosis in human A-427 cells assessed as late apoptotic cells at 5 uM measured after 24 hrs by Annexin V-FITC/propidium iodide staining based flow cytometric analysis (reference value: 2.06%); type: functional
A-427 [5] = assay: Induction of apoptosis in human A-427 cells assessed as late apoptotic cells at 2.5 uM measured after 24 hrs by Annexin V-FITC/propidium iodide staining based flow cytometric analysis (reference value: 2.06%); type: functional
A-427 [6] = assay: Induction of apoptosis in human A-427 cells assessed as early apoptotic cells at 10 uM measured after 24 hrs by Annexin V-FITC/propidium iodide staining based flow cytometric analysis (reference value: 6.58%); type: functional
A-427 [7] = assay: Induction of apoptosis in human A-427 cells assessed as early apoptotic cells at 5 uM measured after 24 hrs by Annexin V-FITC/propidium iodide staining based flow cytometric analysis (reference value: 6.58%); type: functional
A-427 [8] = assay: Induction of apoptosis in human A-427 cells assessed as early apoptotic cells at 2.5 uM measured after 24 hrs by Annexin V-FITC/propidium iodide staining based flow cytometric analysis (reference value: 6.58%); type: functional
MCF7 [9] = assay: Induction of apoptosis in human MCF7 cells assessed as late apoptotic cells at 15 uM measured after 24 hrs by Annexin V-FITC/propidium iodide staining based flow cytometric analysis (reference value: 0.38%); type: functional
MCF7 [10] = assay: Induction of apoptosis in human MCF7 cells assessed as late apoptotic cells at 10 uM measured after 24 hrs by Annexin V-FITC/propidium iodide staining based flow cytometric analysis (reference value: 0.38%); type: functional
MCF7 [11] = assay: Induction of apoptosis in human MCF7 cells assessed as late apoptotic cells at 5 uM measured after 24 hrs by Annexin V-FITC/propidium iodide staining based flow cytometric analysis (reference value: 0.38%); type: functional
MCF7 [12] = assay: Induction of apoptosis in human MCF7 cells assessed as early apoptotic cells at 15 uM measured after 24 hrs by Annexin V-FITC/propidium iodide staining based flow cytometric analysis (reference value: 1.49%); type: functional
MCF7 [13] = assay: Induction of apoptosis in human MCF7 cells assessed as early apoptotic cells at 10 uM measured after 24 hrs by Annexin V-FITC/propidium iodide staining based flow cytometric analysis (reference value: 1.49%); type: functional
MCF7 [14] = assay: Induction of apoptosis in human MCF7 cells assessed as early apoptotic cells at 5 uM measured after 24 hrs by Annexin V-FITC/propidium iodide staining based flow cytometric analysis (reference value: 1.49%); type: functional
A-427 [15] = assay: Cell cycle arrest in human A-427 cells assessed as accumulation at G2/M phase at 10 uM measured after 24 hrs by PI staining based flow cytometry (reference value: 18.80%); type: functional
A-427 [16] = assay: Cell cycle arrest in human A-427 cells assessed as accumulation at S phase at 10 uM measured after 24 hrs by PI staining based flow cytometry (reference value: 33.14%); type: functional
A-427 [17] = assay: Cell cycle arrest in human A-427 cells assessed as accumulation at G0/G1 phase at 10 uM measured after 24 hrs by PI staining based flow cytometry (reference value: 48.06%); type: functional
A-427 [18] = assay: Cell cycle arrest in human A-427 cells assessed as accumulation at G2/M phase at 5 uM measured after 24 hrs by PI staining based flow cytometry (reference value: 18.80%); type: functional
A-427 [19] = assay: Cell cycle arrest in human A-427 cells assessed as accumulation at S phase at 5 uM measured after 24 hrs by PI staining based flow cytometry (reference value: 33.14%); type: functional
A-427 [20] = assay: Cell cycle arrest in human A-427 cells assessed as accumulation at G0/G1 phase at 5 uM measured after 24 hrs by PI staining based flow cytometry (reference value: 48.06%); type: functional
A-427 [21] = assay: Cell cycle arrest in human A-427 cells assessed as accumulation at G2/M phase at 2.5 uM measured after 24 hrs by PI staining based flow cytometry (reference value: 18.80%); type: functional
A-427 [22] = assay: Cell cycle arrest in human A-427 cells assessed as accumulation at S phase at 2.5 uM measured after 24 hrs by PI staining based flow cytometry (reference value: 33.14%); type: functional
A-427 [23] = assay: Cell cycle arrest in human A-427 cells assessed as accumulation at G0/G1 phase at 2.5 uM measured after 24 hrs by PI staining based flow cytometry (reference value: 48.06%); type: functional
MCF7 [24] = assay: Cell cycle arrest in human MCF7 cells assessed as accumulation at G2/M phase at 4.5 uM measured after 24 hrs by PI staining based flow cytometry (reference value: 15.28%); type: functional
MCF7 [25] = assay: Cell cycle arrest in human MCF7 cells assessed as accumulation at S phase at 4.5 uM measured after 24 hrs by PI staining based flow cytometry (reference value: 34.14%); type: functional
MCF7 [26] = assay: Cell cycle arrest in human MCF7 cells assessed as accumulation at G0/G1 phase at 4.5 uM measured after 24 hrs by PI staining based flow cytometry (reference value: 50.58%); type: functional
MCF7 [27] = assay: Cell cycle arrest in human MCF7 cells assessed as accumulation at G2/M phase at 3 uM measured after 24 hrs by PI staining based flow cytometry (reference value: 15.28%); type: functional
MCF7 [28] = assay: Cell cycle arrest in human MCF7 cells assessed as accumulation at S phase at 3 uM measured after 24 hrs by PI staining based flow cytometry (reference value: 34.14%; type: functional
MCF7 [29] = assay: Cell cycle arrest in human MCF7 cells assessed as accumulation at G0/G1 phase at 3 uM measured after 24 hrs by PI staining based flow cytometry (reference value: 50.58%); type: functional
MCF7 [30] = assay: Cell cycle arrest in human MCF7 cells assessed as accumulation at G2/M phase at 1.5 uM measured after 24 hrs by PI staining based flow cytometry (reference value: 15.28%); type: functional
MCF7 [31] = assay: Cell cycle arrest in human MCF7 cells assessed as accumulation at S phase at 1.5 uM measured after 24 hrs by PI staining based flow cytometry (reference value: 34.14%); type: functional
MCF7 [32] = assay: Cell cycle arrest in human MCF7 cells assessed as accumulation at G0/G1 phase at 1.5 uM measured after 24 hrs by PI staining based flow cytometry (reference value: 50.58%); type: functional

## C[C@H]1C/C=C/[C@H]2C(=O)[C@H](C)[C@@H](C)[C@H]3[C@H](Cc4c[nH]c5ccccc45)NC(=O)[C@]32C(=O)CCCC1
A549
  IC50: > 50 µM
A-427 [1]
  IC50: > 50 µM
HCT-116
  IC50: > 50 µM
HT-29
  IC50: > 50 µM
MCF7 [2]
  IC50: > 50 µM
HeLa
  IC50: > 50 µM
HepG2
  IC50: > 50 µM
L02
  IC50: > 50 µM

## CC(=O)O[C@@H]1CC(=O)C[C@@H](C)C/C=C/[C@H]2[C@H](O)C(C)=C(C)[C@H]3[C@H](Cc4c[nH]c5ccccc45)NC(=O)[C@@]23C1=O
A549
  IC50: 15.9 µM
A-427 [1]
  IC50: > 50 µM
HCT-116
  IC50: 21.2 µM
HT-29
  IC50: > 50 µM
MCF7 [2]
  IC50: > 50 µM
HeLa
  IC50: > 50 µM
HepG2
  IC50: > 50 µM
L02
  IC50: > 50 µM

## CC1=C(C)[C@H]2[C@H](Cc3c[nH]c4ccccc34)NC(=O)[C@]23C(=O)CCCC[C@@H](C)C/C=C/[C@H]3[C@@H]1O
A549
  IC50: > 50 µM
A-427 [1]
  IC50: > 50 µM
HCT-116
  IC50: > 50 µM
HT-29
  IC50: > 50 µM
MCF7 [2]
  IC50: > 50 µM
HeLa
  IC50: 18.9 µM
HepG2
  IC50: > 50 µM
L02
  IC50: 46.3 µM

## CO[C@@H]1CC(=O)C[C@@H](C)C/C=C/[C@H]2C=C(C)[C@@H](C)[C@H]3[C@H](Cc4c[nH]c5ccccc45)NC(=O)[C@]32C1=O
A549
  IC50: 23.3 µM
A-427 [1]
  IC50: > 50 µM
HCT-116
  IC50: 30.9 µM
HT-29
  IC50: 43.8 µM
MCF7 [2]
  IC50: > 50 µM
HeLa
  IC50: > 50 µM
HepG2
  IC50: 44.4 µM
L02
  IC50: > 50 µM

## COc1cccc2c1C(=O)c1c(O)c3c(c(O)c1C2=O)C[C@@](O)(C(=O)CO)C[C@@H]3O[C@H]1C[C@H](N)[C@H](O)[C@H](C)O1 [DOXORUBICIN HYDROCHLORIDE]
HCT-116
  IC50: 2.9 µM
HT-29
  IC50: 2.6 µM
HepG2
  IC50: 0.4 µM
L02
  IC50: 0.7 µM

## CC1=C[C@@H]2/C=C/C[C@H](C)CC(=O)[C@@H]3O[C@H]3C(=O)[C@]23C(=O)N[C@@H](Cc2c[nH]c4ccccc24)[C@@H]3[C@@H]1C
A549
  IC50: 44 µM
A-427 [1]
  IC50: > 50 µM
HCT-116
  IC50: > 50 µM
HT-29
  IC50: 40.4 µM
MCF7 [2]
  IC50: > 50 µM
HeLa
  IC50: > 50 µM
HepG2
  IC50: 37.3 µM
L02
  IC50: > 50 µM

## CC1=C[C@@H]2/C=C/C[C@H](C)CCCCC(=O)[C@]23C(=O)N[C@@H](Cc2c[nH]c4ccccc24)[C@@H]3[C@@H]1C
A549
  IC50: > 50 µM
A-427 [1]
  IC50: 13.8 µM
HCT-116
  IC50: 38.5 µM
HT-29
  IC50: > 50 µM
MCF7 [2]
  IC50: > 50 µM
HeLa
  IC50: 20.3 µM
HepG2
  IC50: > 50 µM
L02
  IC50: > 50 µM

## CO[C@@H]1/C=C\[C@@H](C)C/C=C/[C@H]2[C@H](O)C(C)=C(C)[C@H]3[C@H](Cc4c[nH]c5ccccc45)NC(=O)[C@@]23C(=O)C1
A549
  IC50: 21.5 µM
A-427 [1]
  IC50: > 50 µM
HCT-116
  IC50: 26.1 µM
HT-29
  IC50: > 50 µM
MCF7 [2]
  IC50: > 50 µM
HeLa
  IC50: 41.5 µM
HepG2
  IC50: > 50 µM
L02
  IC50: > 50 µM

## C=C1[C@@H](C)[C@H]2[C@H](Cc3c[nH]c4ccccc34)NC(=O)[C@]23C(=O)CCCC[C@@H](C)C/C=C/[C@H]3[C@@H]1O
A549
  IC50: 40.4 µM
A-427 [1]
  IC50: > 50 µM
HCT-116
  IC50: 45.3 µM
HT-29
  IC50: > 50 µM
MCF7 [2]
  IC50: > 50 µM
HeLa
  IC50: > 50 µM
HepG2
  IC50: > 50 µM
L02
  IC50: > 50 µM

## CC1=C(C)[C@H]2[C@H](Cc3c[nH]c4ccccc34)NC(=O)[C@]23C(=O)/C=C\CC[C@@H](C)C/C=C/[C@H]3[C@@H]1O
A549
  IC50: 6.9 µM
A-427 [1]
  IC50: 7.5 µM
HCT-116
  IC50: 11.2 µM
HT-29
  IC50: 8.8 µM
MCF7 [2]
  IC50: 6.8 µM
HeLa
  IC50: 10.1 µM
HepG2
  IC50: 10.7 µM
L02
  IC50: 41.8 µM
A-427 [3]
  Activity: 33.54%
A-427 [4]
  Activity: 33.06%
A-427 [5]
  Activity: 32.65%
A-427 [6]
  Activity: 31.16%
A-427 [7]
  Activity: 20.64%
A-427 [8]
  Activity: 18.24%
MCF7 [9]
  Activity: 21.26%
MCF7 [10]
  Activity: 15.06%
MCF7 [11]
  Activity: 11.69%
MCF7 [12]
  Activity: 12.83%
MCF7 [13]
  Activity: 11.17%
MCF7 [14]
  Activity: 10.35%
A-427 [15]
  Activity: 42.41%
A-427 [16]
  Activity: 22.03%
A-427 [17]
  Activity: 35.56%
A-427 [18]
  Activity: 37.05%
A-427 [19]
  Activity: 21.59%
A-427 [20]
  Activity: 41.36%
A-427 [21]
  Activity: 34.23%
A-427 [22]
  Activity: 20.59%
A-427 [23]
  Activity: 45.18%
MCF7 [24]
  Activity: 82.7%
MCF7 [25]
  Activity: 8.06%
MCF7 [26]
  Activity: 9.24%
MCF7 [27]
  Activity: 71.45%
MCF7 [28]
  Activity: 11.19%
MCF7 [29]
  Activity: 17.36%
MCF7 [30]
  Activity: 58.41%
MCF7 [31]
  Activity: 17.94%
MCF7 [32]
  Activity: 23.65%

Reference: ChEMBL document CHEMBL4808193, “[11]-Chaetoglobosins from Pseudeurotium bakeri Induce G2/M Cell Cycle Arrest and Apoptosis in Human Cancer Cells” (J Nat Prod, 2021)
